{"source": "paper doi:10.1101/2024.02.28.582502", "about": "“Magnesium Transporter MgtA revealed as a Dimeric P-type ATPase” (bioRxiv, 2024)", "molecules": {"B1": {"name": "Escherichia coli magnesium transporter MgtA (from pETDuet-1-MgtAS, co-overexpressed with MgtS) (natural protein)", "chain": "MFKEIFTRLIRHLPSRLVHRDPLPGAQQTVNTVVPPSLSAHCLKMAVMPEEELWKTFDTHPEGLNQAEVESAREQHGENKLPAQQPSPWWVHLWVCYRNPFNILLTILGAISYATEDLFAAGVIALMVAISTLLNFIQEARSTKAADALKAMVSNTATVLRVINDKGENGWLEIPIDQLVPGDIIKLAAGDMIPADLRILQARDLFVAQASLTGESLPVEKAATTRQPEHSNPLECDTLCFMGTTVVSGTAQAMVIATGANTWFGQLAGRVSEQESEPNAFQQGISRVSMLLIRFMLVMAPVVLLINGYTKGDWWEAALFALSVAVGLTPEMLPMIVTSTLARGAVKLSKQKVIVKHLDAIQNFGAMDILCTDKTGTLTQDKIVLENHTDISGKTSERVLHSAWLNSHYQTGLKNLLDTAVLEGTDEESARSLASRWQKIDEIPFDFERRRMSVVVAENTEHHQLVCKGALQEILNVCSQVRHNGEIVPLDDIMLRKIKRVTDTLNRQGLRVVAVATKYLPAREGDYQRADESDLILEGYIAFLDPPKETTAPALKALKASGITVKILTGDSELVAAKVCHEVGLDAGEVVIGSDIETLSDDELANLAQRTTLFARLTPMHKERIVTLLKREGHVVGFMGDGINDAPALRAADIGISVDGAVDIAREAADIILLEKSLMVLEEGVIEGRRTFANMLKYIKMTASSNFGNVFSVLVASAFLPFLPMLPLHLLIQNLLYDVSQVAIPFDNVDDEQIQKPQRWNPADLGRFMIFFGPISSIFDILTFCLMWWVFHANTPETQTLFQSGWFVVGLLSQTLIVHMIRTRRVPFIQSCASWPLMIMTVIVMIVGIALPFSPLASYLQLQALPLSYFPWLVAILAGYMTLTQLVKGFYSRRYGWQ", "notes": "MgtA, E. coli, P-type ATPase Mg2+ transporter, 100 kDa, 898 amino acids; residues from the N-terminal tail (1-36) on are modelled in the dimer structure; That the His tag stands on MgtA is inferred from its elution from Ni-NTA; also called EcMgtA; MgtAS (the purified sample); source: E. coli C43 (DE3), pETDuet-1-MgtAS, co-overexpressed with MgtS; membranes solubilised with 1% GDN (or DDM, LMNG); …"}}, "key": {"MgtA [1]": {"biological_target": "T1, MgtA (Escherichia coli, UniProt P0ABB8)", "T1 construct": "full length, 898 aa, 100 kDa; pETDuet-1-MgtAS (co-expressed with MgtS, no MgtS density seen), E. coli C43(DE3); Ni-NTA and SEC in GDN; predominantly homodimer for cryo-EM, predominantly monomer in DDM for HDX-MS", "T1 sequence (P0ABB8 1-898)": "B1 chain", "assay": "cryo-EM map density ([…] Å), ligand not modelled", "settings": "5 mM ADP, 5 mM MgCl2, pH 7.5, GDN, dimer, nucleotide binding site"}, "MgtA [2]": {"biological_target": "T1, MgtA", "assay": "cryo-EM structure ([…] Å); HDX-MS", "settings": "cryo-EM: 5 mM ATP, 5 mM MgCl2, pH 7.5, GDN, dimer, nucleotide binding site; HDX-MS: 5 mM ATP, 5 mM MgSO4, DDM, mainly monomer"}, "MgtA [3]": {"biological_target": "T1, MgtA", "assay": "cryo-EM structure ([…] Å); HDX-MS", "settings": "cryo-EM: 5 mM ATPγS, 5 mM MgCl2, pH 7.5, GDN, dimer, nucleotide binding site; HDX-MS: 5 mM ATPγS, 5 mM MgSO4, DDM, mainly monomer"}, "[4]": {"biological_target": "the molecule itself", "assay": "cryo-EM structure; single-particle cryo-EM of GDN-purified MgtA, 5 mM MgCl2, 0.007% GDN; without nucleotide or with 5 mM ATP, ATPγS or ADP"}}, "data": [{"molecule": "Nc1ncnc2c1ncn2[C@@H]1O[C@H](COP(=O)(O)OP(=O)(O)O)[C@@H](O)[C@H]1O", "note": "[ADP]", "values": [{"measurement": "cryo-EM map density (3.75 Å), ligand not modelled", "setting": "MgtA [1]", "result": "some ADP can enter the nucleotide binding pocket but cannot be bound as tightly"}]}, {"molecule": "Nc1ncnc2c1ncn2[C@@H]1O[C@H](COP(=O)(O)OP(=O)(O)OP(=O)(O)O)[C@@H](O)[C@H]1O", "note": "[ATP]", "values": [{"measurement": "cryo-EM structure (3.72 Å); HDX-MS", "setting": "MgtA [2]", "result": "Cryo-EM structures of the MgtA dimer bound to the ligands ATP, ATPgS, and ADP"}]}, {"molecule": "Nc1ncnc2c1ncn2[C@@H]1O[C@H](COP(=O)(O)OP(=O)(O)OP(O)(O)=S)[C@@H](O)[C@H]1O", "note": "[ATPγS]", "values": [{"measurement": "cryo-EM structure (3.87 Å); HDX-MS", "setting": "MgtA [3]", "result": "MgtA with ATPγS, though resolved at slightly lower resolution, was structurally similar to MgtA with ATP"}]}, {"molecule": "B1", "values": [{"measurement": "stoichiometry N", "setting": "[4]", "result": 2}]}]}
